In patent publication EP4585599A1, “NITROGEN-CONTAINING FUSED RING COMPOUND, INTERMEDIATE THEREOF, PREPARATION METHOD THEREFOR AND USE THEREOF” (Hangzhou Synrx Therapeutics Biomedical Technology Co., Ltd., priority 2022, dated 2024):
Like-named read-outs stand apart in the source and are kept apart here.

Legend:
[1] = molecular target: T1, helicase domain of the Pol θ protein (Homo sapiens, UniProt O75417); experiment: Biochemical Activity Assay (ADP Glo Assay) of Pol θ inhibitor, ATPase activity
T1 construct: The helicase domain of the Pol θ protein was purified from insect protein expression system; made in house; host or cells: insect protein expression system

cells = conditions: Homo sapiens, DLD-1, 240 h
[2] = read-out: Cell viability assay IC50 (nM)
[3] = ADP-Glo assay, ATPase activity of Pol θ helicase domain, ssDNA substrate, read-out: Biochemical assay IC50
[4] = read-out: Cell viability assay IC50 (nM), CTG assay, CellTiter Glo, read on Day 10, cell line not given
[5] = ADP-Glo, ssDNA substrate, 60 min at room temperature, read-out: Biochemical assay IC50
[6] = read-out: Cell viability assay IC50 (nM), CTG on Day 10, cell line not given (method: DLD1 and DLD1^-/- cells)

T1 sequence (O75417 102-554 limits assumed): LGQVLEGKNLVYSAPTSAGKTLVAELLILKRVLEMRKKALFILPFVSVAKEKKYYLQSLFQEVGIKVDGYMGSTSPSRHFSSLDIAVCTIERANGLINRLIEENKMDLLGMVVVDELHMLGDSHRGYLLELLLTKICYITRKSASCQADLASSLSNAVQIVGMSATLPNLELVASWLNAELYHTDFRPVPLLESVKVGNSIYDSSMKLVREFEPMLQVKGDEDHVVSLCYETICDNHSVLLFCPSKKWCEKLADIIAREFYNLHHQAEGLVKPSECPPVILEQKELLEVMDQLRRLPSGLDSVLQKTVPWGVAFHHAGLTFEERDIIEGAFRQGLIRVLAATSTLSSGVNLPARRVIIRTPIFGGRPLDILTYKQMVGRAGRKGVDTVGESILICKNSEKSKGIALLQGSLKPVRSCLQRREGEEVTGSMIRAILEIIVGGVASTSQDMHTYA

| Compound | IC50 ([1]; Biochemical assay IC50 (nM)) [nM] | IC50 (cells; [2]) [nM] | IC50 [1, 3] [nM] | IC50 (cells; [4]) [nM] | IC50 [1, 5] [nM] | IC50 (cells; [6]) [nM] |
| --- | --- | --- | --- | --- | --- | --- |
| COc1cnc(Cl)cc1-c1cc(C)ncc1C(=O)Nc1nc2cnc(-c3c(C(F)F)nnn3C)cc2s1 [Example 226, 2'-chloro-N-(6-(4-(difluoromethyl)-1-methyl-1H-1,2,3-triazol-5-yl)thiazolo[4,5-c]pyridin-2-yl)-5'-methoxv-6-methyl-[4.4'-bipyridine]-3-carboxamide] | 4.02 | 8.46 |  |  |  |  |
| COc1cnc(Cl)cc1-c1cc(C)ncc1C(=O)Nc1nc2cnc(N3CC4(CC(O)C4)C3)nc2s1 [Example 142] |  |  | 4.49 | 104 |  |  |
| COc1cnc(Cl)cc1-c1cc(C)ncc1C(=O)Nc1nc2cnc(-c3ccc(S(F)(F)(F)(F)F)cc3)cc2s1 [Example 188] |  |  | 36.7 | < 1.52 |  |  |
| COc1cnc(Cl)c(F)c1-c1cc(C)ncc1C(=O)Nc1nc2cnc(N3CCC(O)CC3)nc2s1 [Example 200] |  |  | 6.51 | 7.07 |  |  |
| COc1cnc(Cl)cc1-c1cc(C)ncc1C(=O)Nc1nc2cnc(-c3c(C)cnn3C)nc2s1 [Example 157] |  |  | 5.08 | 32.9 |  |  |
| COc1cnc(C(F)F)cc1-c1cc(C)ncc1C(=O)Nc1nc2ccc(-c3c(C)nnn3C)cc2s1 [Example 223] |  |  | 2.51 | 10 |  |  |
| COc1cnc(Cl)cc1-c1cc(C)ncc1C(=O)Nc1nc2ncc(N3CCC(O)CC3)cc2s1 [Example 59] |  |  | 3.63 | 82.5 | < 50 | < 100 |
| COc1cnc(Cl)cc1-c1cc(C)ncc1C(=O)Nc1nc2ncc(C3=CCC(NC(C)=O)CC3)cc2s1 (centres unmarked) [Example 23] |  |  | 2.84 | 15.3 | < 50 | < 100 |
| COc1cnc(Cl)cc1-c1cc(C)ncc1C(=O)Nc1nc2ccc(C3=CCC(O)CC3)c(C#N)c2s1 (centres unmarked) [Example 22] |  |  | 115 | 1580 | 50 to 200 | > 1000 |
| COc1cnc(Cl)cc1-c1cc(C)ncc1C(=O)Nc1nc2ncc(C3=CCC(N)CC3)cc2s1 (centres unmarked) [Example 21] |  |  | 3.48 | 76.4 | < 50 | < 100 |
| COc1cnc(Cl)cc1-c1cc(C)ncc1C(=O)Nc1nc2ncc(N3CCC(O)(CO)CC3)cc2s1 [Example 106, 2'-chloro-N-(6-(4-hydroxy-4-(hydroxymethyl)piperidin-1-yl)thiazolo[4,5-b]pyridin-2-yl) -5'-methoxy-6-methyl-[4,4'-bipyridine]-3-carboxamide] |  |  | 6.18 | 450 | < 50 | 100 to 500 |
| COc1cnc(Cl)cc1-c1cc(C)ncc1C(=O)Nc1nc2ccc(N3CCC(O)C3)nc2s1 (centres unmarked) [Example 47] |  |  | 53 | 631 | 50 to 200 | 500 to 1000 |
| COc1cnc(Cl)cc1-c1cc(C)ncc1C(=O)Nc1nc2ccc(-c3c(C)cnn3C)c(F)c2s1 [Example 151] |  |  | 8.57 | 3.98 |  |  |
| COc1cnc(Cl)cc1-c1cc(C)ncc1C(=O)Nc1nc2ncc(N3CC4CC(O)CC4C3)cc2s1 (centres unmarked) [Example 61] |  |  | 10.5 | 141 | < 50 | 100 to 500 |
| COc1cnc(Cl)cc1-c1cc(C)ncc1C(=O)Nc1nc2ccc(N3CCc4ccccc4C3)nc2s1 [Example 132] |  |  | 163 | 158 |  |  |
| COc1cnc(Cl)cc1-c1cc(C)ncc1C(=O)Nc1nc2ncc(C3=CCC4(CC3)CN(C(C)=O)C4)cc2s1 [Example 184] |  |  | 15.2 | 482 |  |  |
| COc1cnc(Cl)cc1-c1cc(C)ncc1C(=O)Nc1nc2ccc(N3CCC(CO)CC3)nc2s1 [Example 128] |  |  | 9.69 | 39.8 |  |  |
| COc1cnc(Cl)cc1-c1cc(C)ncc1C(=O)Nc1nc2ccc(N3CCC(O)CC3)c(F)c2s1 [Example 104] |  |  | 1.56 | 5.62 | < 50 | < 100 |
| COc1cnc(Cl)cc1-c1cc(C)ncc1C(=O)Nc1nc2cnc(C3=CCC4(CC3)CN(C(C)=O)C4)cc2s1 [Example 185] |  |  | 8.94 | 35.9 |  |  |
| COc1cnc(Cl)cc1-c1cc(C)ncc1C(=O)Nc1nc2cc(C3=CCC(O)CC3)cnc2s1 (centres unmarked) [Example 2] |  |  | 118 | 3160 | 50 to 200 | > 1000 |
| COc1cnc(Cl)cc1-c1cc(C)ncc1C(=O)Nc1nc2cnc(C3=CC[C@@H](O)CC3)cc2s1 [Example 115, (S) -2'-chloro-N-(6-(4-hydroxycyclohex-1-en-1-yl)thiazolo[4,5-c]pyridin-2-yl)-5'-methoxy-6-methyl-[4,4'-bipyridine]-3-c arboxamide] |  |  | 3.21 | 2.61 | < 50 | < 100 |

| Compound | IC50 ([1]; Biochemical assay IC50 (nM)) [nM] | IC50 (cells; [2]) [nM] | IC50 [1, 3] [nM] | IC50 (cells; [4]) [nM] | IC50 [1, 5] [nM] | IC50 (cells; [6]) [nM] |
| --- | --- | --- | --- | --- | --- | --- |
| COc1cnc(Cl)cc1-c1cc(C)ncc1C(=O)Nc1nc2c(s1)CN(Cc1ccncc1)CC2 [Example 192, 2'-chloro-5'-methoxy-6-methyl-N-(5-(pyridin-4-ylmethyl)-4,5,6,7-tetrahydrothiazolo[5,4-c]pyridin-2-yl)-[4,4'-bipyridine]-3-carboxamide] |  |  | 103 | 4820 |  |  |
| COc1cnc(C(F)F)cc1-c1cc(C)ncc1C(=O)Nc1nc2cnc(N3CCCCC3=O)nc2s1 [Example 201, 2'-(difluoromethyl)-5'-methoxy-6-methyl-N-(5-(2-oxopiperidin-1-yl)thiazolo[5,4-d]pyrimidin-2-yl)-[4,4'-bipyridine]-3-carboxamide] |  |  | 5.24 | 224 |  |  |
| COc1cnc(Cl)c(F)c1-c1cc(C)ncc1C(=O)Nc1nc2ccc(N3CCC(O)CC3)nc2s1 [Example 53] |  |  | 1.96 | 9.38 | < 50 | < 100 |
| COc1cnc(Cl)cc1-c1cc(C)ncc1C(=O)Nc1nc2ccc(C3=CCC(O)CC3)c(F)c2s1 (centres unmarked) [Example 20] |  |  | 2.95 | 7.64 | < 50 | < 100 |
| COc1cnc(Cl)cc1-c1cc(C)ncc1C(=O)Nc1nc2cc(F)c(C3=CCC(O)CC3)cc2s1 (centres unmarked) [Example 84] |  |  | 1.81 | 2.42 | < 50 | < 100 |
| COc1cnc(Cl)cc1-c1cc(C)ncc1C(=O)Nc1nc2cc(F)c(N3CCC(O)CC3)nc2s1 [Example 126] |  |  | 7.35 | 9.26 |  |  |
| COc1cnc(Cl)cc1-c1cc(C)ncc1C(=O)Nc1nc2ccc(C3=CCC(O)CC3)cc2s1 (centres unmarked) [Example 15] |  |  | 3.55 | 14.7 | < 50 | < 100 |
| COc1cnc(Cl)cc1-c1cc(C)ncc1C(=O)Nc1nc2ccc(N3CCn4cncc4C3)nc2s1 [Example 137] |  |  | 25.1 | 171 |  |  |
| COc1cnc(Cl)cc1-c1cc(C)ncc1C(=O)Nc1nc2nnc(C3=CCC(O)CC3)cc2s1 (centres unmarked) [Example 183, 2'-chloro-N-(3-(4-hydroxycyclohexyl-1-en-1-yl)thiazolo[4,5-c]pyridazin-6-yl)-5'-methox y-6-methyl-[4,4'-bipyridine]-3-carboxamide] | 3.41 | 1260 |  |  |  |  |
| COc1cnc(Cl)cc1-c1cc(C)ncc1C(=O)Nc1nc2ncc(C3COCCO3)cc2s1 (centres unmarked) [Example 182, N-(6-(1,4-dioxan-2-yl)thiazolo[4,5-b]pyridin-2-yl)-2'-chloro-5'-methoxy-6-methyl-[4,4'-bipyridine]-3-carboxamide] |  |  | 2.08 | 39.8 |  |  |
| COc1cnc(Cl)cc1-c1cc(C)ncc1C(=O)Nc1nc2ccc(-c3c(C)cnn3C)cc2s1 [Example 148] |  |  | 4.93 | 4.13 |  |  |
| COc1cnc(Cl)cc1-c1cc(C)ncc1C(=O)Nc1nc2cnc(-c3nnc(C)o3)cc2s1 [Example 206] |  |  | 2.36 | 13.6 |  |  |
| COc1cnc(Cl)cc1-c1cc(C)ncc1C(=O)Nc1nc2ccc(C3=CCC(O)CC3)nc2[nH]1 (centres unmarked) [Example 56, 2'-chloro-N-(5-(4-hydroxycyclohex-1-en-1-yl)-3H-imidazo[4,5-b]pyridin-2-yl)-5'-methox y-6-methyl-[4,4'-bipyridine]-3-carboxamide] |  |  | 222 | 9620 | 200 to 500 | > 1000 |
| COc1cnc(Cl)cc1-c1cc(C)ncc1C(=O)Nc1nc2ccc(-c3ccncc3Cl)nc2s1 [Example 82] |  |  | 6.71 | 104 | < 50 | 100 to 500 |
| COc1cnc(Cl)cc1-c1cc(C)ncc1C(=O)Nc1nc2cc3c(cc2s1)N(c1ccnn1C)CCO3 [Example 194, 2'-chloro-5'-methoxy-6-methyl-N-(8-(1-methyl-1H-parazol-5-yl)-7,8-dihydro-6H-thiazolo[5',4':4,5]benzo[1,2-b][1,4]oxazin-2-yl)-[4,4'-bipyridine]-3-carboxamide] | 22.9 | 65.6 |  |  |  |  |
| COc1cnc(Cl)cc1-c1cc(C)ncc1C(=O)Nc1nc2ncc(C3=CCC4(CC3)COC4)cc2s1 [Example 78] |  |  | 2.89 | 8.21 | < 50 | < 100 |
| COc1cnc(Cl)cc1-c1cc(C)ncc1C(=O)Nc1nc2ncc(N3CCC(NC(=O)C4(C)CC4)CC3)cc2s1 [Example 74] |  |  | 6.44 | 383 | < 50 | 100 to 500 |
| COc1cnc(Cl)cc1-c1cc(C)ncc1C(=O)Nc1nc2ncc(N3CC[C@H](O)[C@H](F)C3)cc2s1 [Example 100] |  |  | 2.95 | 207 | < 50 | 100 to 500 |
| COc1cnc(Cl)cc1-c1cc(C)ncc1C(=O)Nc1nc2ncc(C3=CCNCC3)cc2s1 [Example 16] |  |  | 13.5 | 2330 | < 50 | > 1000 |
| COc1cnc(Cl)cc1-c1cc(C)ncc1C(=O)Nc1nc2ccc(-c3c(C)nnn3C)nc2s1 [Example 147, 2'-chloro-N-(5-(1,4-dimethyl-1H-1,2,3-triazol-5-yl)thiazolo[5,4-b]pyridin-2-yl)-5'-methoxy-6-methyl-[4,4'-bipyridine]-3-carboxamide] |  |  | 17.6 | 82.5 |  |  |
